Measured values taken from ChEMBL document CHEMBL1133032, “Combinatorial approach to lead optimization of a novel hexapeptide with antifungal activity” (Bioorg Med Chem Lett, 2000).
Converted amounts (≈) assume the structure as drawn. Square brackets hold non-standard residues; d marks the D form. Peptide text beside a SMILES is read from it.

How the values were obtained:
Cryptococcus neoformans = assay: Lowest concentration of compound that substantially inhibited the growth of Cryptococcus neoformans after 48 hr; type: functional
Candida albicans = assay: Antifungal activity against Candida albicans using twofold microbroth dilution technique.; type: functional, organism-based

Row | Compound | MIC (Cryptococcus neoformans) | IC50 (Candida albicans)
1 | CC[C@H](C)[C@H](NC(=O)[C@@H](Cc1ccccc1)NC(=O)[C@@H](Cc1c[nH]c2ccccc12)NC(=O)[C@@H](N)CCCN=C(N)N)C(=O)N[C@H](Cc1ccccc1)C(=O)N[C@@H](Cc1ccc(O)cc1)C(N)=O [listing 1 of 2 here] | 13.4 µM (≈ 12.5 µg/mL) | –
2 | CC[C@H](C)[C@H](NC(=O)[C@@H](Cc1ccccc1)NC(=O)[C@@H](Cc1c[nH]c2ccccc12)NC(=O)[C@@H](N)CCCN=C(N)N)C(=O)N[C@H](Cc1ccccc1)C(=O)NCC(N)=O [listing 1 of 2 here] | – | 33.9 µM
3 | CC[C@H](C)[C@H](NC(=O)[C@@H](Cc1ccccc1)NC(=O)[C@@H](Cc1c[nH]c2ccccc12)NC(=O)[C@@H](N)CCCN=C(N)N)C(=O)N[C@H](Cc1ccccc1)C(=O)N[C@@H](CC(N)=O)C(N)=O [listing 1 of 2 here] | 14.2 µM (≈ 12.5 µg/mL) | –
4 | CC[C@H](C)[C@H](NC(=O)[C@@H](Cc1ccccc1)NC(=O)[C@@H](Cc1c[nH]c2ccccc12)NC(=O)[C@@H](N)CCCN=C(N)N)C(=O)N[C@H](Cc1ccccc1)C(=O)N[C@@H](Cc1c[nH]cn1)C(N)=O (H-R[dW][dF]I[dF]H-NH2) [listing 1 of 2 here] | 6.85 µM (≈ 6.19 µg/mL) | –
5 | CC[C@H](C)[C@H](NC(=O)[C@@H](Cc1ccccc1)NC(=O)[C@@H](Cc1c[nH]c2ccccc12)NC(=O)[C@@H](N)CCCN=C(N)N)C(=O)N[C@H](Cc1ccccc1)C(=O)N[C@@H](CCC(N)=O)C(N)=O [listing 1 of 2 here] | 55.9 µM (≈ 50 µg/mL) | –
6 | CC[C@H](C)[C@H](NC(=O)[C@@H](Cc1ccccc1)NC(=O)[C@@H](Cc1c[nH]c2ccccc12)NC(=O)[C@@H](N)CCCN=C(N)N)C(=O)N[C@H](Cc1ccccc1)C(=O)N[C@@H](CO)C(N)=O [listing 1 of 2 here] | – | > 14.9 µM
7 | CC[C@H](C)[C@H](NC(=O)[C@@H](Cc1ccccc1)NC(=O)[C@@H](Cc1c[nH]c2ccccc12)NC(=O)[C@@H](N)CCCN=C(N)N)C(=O)N[C@H](Cc1ccccc1)C(=O)N[C@@H](CCC(N)=O)C(N)=O [listing 2 of 2 here] | – | 30.2 µM
8 | CC[C@H](C)[C@H](NC(=O)[C@@H](Cc1ccccc1)NC(=O)[C@@H](Cc1c[nH]c2ccccc12)NC(=O)[C@@H](N)CCCN=C(N)N)C(=O)N[C@H](Cc1ccccc1)C(=O)N[C@@H](CCCN=C(N)N)C(N)=O [listing 1 of 2 here] | 6.71 µM (≈ 6.19 µg/mL) | –
9 | CC[C@H](C)[C@H](NC(=O)[C@@H](Cc1ccccc1)NC(=O)[C@@H](Cc1c[nH]c2ccccc12)NC(=O)[C@@H](N)CCCN=C(N)N)C(=O)N[C@H](Cc1ccccc1)C(=O)N[C@@H](CCCN=C(N)N)C(N)=O [listing 2 of 2 here] | – | > 12.5 µM
10 | CC[C@H](C)[C@H](NC(=O)[C@@H](Cc1ccccc1)NC(=O)[C@@H](Cc1c[nH]c2ccccc12)NC(=O)[C@@H](N)CCCN=C(N)N)C(=O)N[C@H](Cc1ccccc1)C(=O)N[C@@H](CC(C)C)C(N)=O [listing 1 of 2 here] | 7.04 µM (≈ 6.2 µg/mL) | –
11 | CC[C@H](C)[C@H](NC(=O)[C@@H](Cc1ccccc1)NC(=O)[C@@H](NC(=O)[C@@H](Cc1ccccc1)NC(=O)[C@@H](Cc1c[nH]c2ccccc12)NC(=O)[C@@H](N)CCCN=C(N)N)[C@@H](C)CC)C(N)=O [listing 1 of 2 here] | – | 45.6 µM
12 | CC[C@H](C)[C@H](NC(=O)[C@@H](Cc1ccccc1)NC(=O)[C@@H](Cc1c[nH]c2ccccc12)NC(=O)[C@@H](N)CCCN=C(N)N)C(=O)N[C@H](Cc1ccccc1)C(=O)N[C@@H](C)C(N)=O [listing 1 of 2 here] | 14.9 µM (≈ 12.5 µg/mL) | –
13 | CC[C@H](C)[C@H](NC(=O)[C@@H](Cc1ccccc1)NC(=O)[C@@H](Cc1c[nH]c2ccccc12)NC(=O)[C@@H](N)CCCN=C(N)N)C(=O)N[C@H](Cc1ccccc1)C(=O)N[C@@H](Cc1ccccc1)C(N)=O [listing 1 of 2 here] | 13.7 µM (≈ 12.5 µg/mL) | –
14 | CC[C@H](C)[C@H](NC(=O)[C@@H](Cc1ccccc1)NC(=O)[C@@H](Cc1c[nH]c2ccccc12)NC(=O)[C@@H](N)CCCN=C(N)N)C(=O)N[C@H](Cc1ccccc1)C(=O)N[C@@H](CC(=O)O)C(N)=O [listing 1 of 2 here] | – | > 14.9 µM
15 | CC[C@H](C)[C@H](NC(=O)[C@@H](Cc1ccccc1)NC(=O)[C@@H](Cc1c[nH]c2ccccc12)NC(=O)[C@@H](N)CCCN=C(N)N)C(=O)N[C@H](Cc1ccccc1)C(=O)N[C@@H](CCC(=O)O)C(N)=O [listing 1 of 2 here] | 55.8 µM (≈ 50 µg/mL) | –
16 | CC[C@H](C)[C@H](NC(=O)[C@@H](Cc1ccccc1)NC(=O)[C@@H](Cc1c[nH]c2ccccc12)NC(=O)[C@@H](N)CCCN=C(N)N)C(=O)N[C@H](Cc1ccccc1)C(=O)N[C@@H](CO)C(N)=O [listing 2 of 2 here] | 14.6 µM (≈ 12.5 µg/mL) | –
17 | CC[C@H](C)[C@H](NC(=O)[C@@H](Cc1ccccc1)NC(=O)[C@@H](Cc1c[nH]c2ccccc12)NC(=O)[C@@H](N)CCCN=C(N)N)C(=O)N[C@H](Cc1ccccc1)C(=O)N1CCC[C@H]1C(N)=O [listing 1 of 2 here] | – | 51.4 µM
18 | CC[C@H](C)[C@H](NC(=O)[C@@H](Cc1ccccc1)NC(=O)[C@@H](Cc1c[nH]c2ccccc12)NC(=O)[C@@H](N)CCCN=C(N)N)C(=O)N[C@H](Cc1ccccc1)C(=O)N[C@@H](CCCCN)C(N)=O [listing 1 of 2 here] | – | 14.4 µM
19 | CC[C@H](C)[C@H](NC(=O)[C@@H](Cc1ccccc1)NC(=O)[C@@H](Cc1c[nH]c2ccccc12)NC(=O)[C@@H](N)CCCN=C(N)N)C(=O)N[C@H](Cc1ccccc1)C(=O)N[C@@H](CC(C)C)C(N)=O [listing 2 of 2 here] | – | 14.9 µM
20 | CC[C@H](C)[C@H](NC(=O)[C@@H](Cc1ccccc1)NC(=O)[C@@H](Cc1c[nH]c2ccccc12)NC(=O)[C@@H](N)CCCN=C(N)N)C(=O)N[C@H](Cc1ccccc1)C(=O)N[C@@H](Cc1ccc(O)cc1)C(N)=O [listing 2 of 2 here] | – | 15.9 µM

Row | Compound | MIC (Cryptococcus neoformans) | IC50 (Candida albicans)
21 | CC[C@H](C)[C@H](NC(=O)[C@@H](Cc1ccccc1)NC(=O)[C@@H](Cc1c[nH]c2ccccc12)NC(=O)[C@@H](N)CCCN=C(N)N)C(=O)N[C@H](Cc1ccccc1)C(=O)N[C@H](C(N)=O)C(C)C [listing 1 of 2 here] | – | > 28.4 µM
22 | CC[C@H](C)[C@H](NC(=O)[C@@H](Cc1ccccc1)NC(=O)[C@@H](Cc1c[nH]c2ccccc12)NC(=O)[C@@H](N)CCCN=C(N)N)C(=O)N[C@H](Cc1ccccc1)C(=O)N[C@H](C(N)=O)C(C)C [listing 2 of 2 here] | 14.4 µM (≈ 12.5 µg/mL) | –
23 | CC[C@H](C)[C@H](NC(=O)[C@@H](Cc1ccccc1)NC(=O)[C@@H](Cc1c[nH]c2ccccc12)NC(=O)[C@@H](N)CCCN=C(N)N)C(=O)N[C@H](Cc1ccccc1)C(=O)N[C@@H](Cc1c[nH]cn1)C(N)=O (H-R[dW][dF]I[dF]H-NH2) [listing 2 of 2 here] | – | 6.85 µM
24 | CC[C@H](C)[C@H](NC(=O)[C@@H](Cc1ccccc1)NC(=O)[C@@H](Cc1c[nH]c2ccccc12)NC(=O)[C@@H](N)CCCN=C(N)N)C(=O)N[C@H](Cc1ccccc1)C(=O)N[C@@H](CCSC)C(N)=O [listing 1 of 2 here] | – | 24.5 µM
25 | CC[C@H](C)[C@H](NC(=O)[C@@H](Cc1ccccc1)NC(=O)[C@@H](Cc1c[nH]c2ccccc12)NC(=O)[C@@H](N)CCCN=C(N)N)C(=O)N[C@H](Cc1ccccc1)C(=O)NCC(N)=O [listing 2 of 2 here] | 15.2 µM (≈ 12.5 µg/mL) | –
26 | CC[C@H](C)[C@H](NC(=O)[C@@H](Cc1ccccc1)NC(=O)[C@@H](Cc1c[nH]c2ccccc12)NC(=O)[C@@H](N)CCCN=C(N)N)C(=O)N[C@H](Cc1ccccc1)C(=O)N[C@H](C(N)=O)[C@@H](C)O [listing 1 of 2 here] | 14.4 µM (≈ 12.5 µg/mL) | –
27 | CC[C@H](C)[C@H](NC(=O)[C@@H](Cc1ccccc1)NC(=O)[C@@H](Cc1c[nH]c2ccccc12)NC(=O)[C@@H](N)CCCN=C(N)N)C(=O)N[C@H](Cc1ccccc1)C(=O)N[C@@H](CC(N)=O)C(N)=O [listing 2 of 2 here] | – | > 14.9 µM
28 | CC[C@H](C)[C@H](NC(=O)[C@@H](Cc1ccccc1)NC(=O)[C@@H](Cc1c[nH]c2ccccc12)NC(=O)[C@@H](N)CCCN=C(N)N)C(=O)N[C@H](Cc1ccccc1)C(=O)N[C@@H](Cc1c[nH]c2ccccc12)C(N)=O [listing 1 of 2 here] | 13.1 µM (≈ 12.5 µg/mL) | –
29 | CC[C@H](C)[C@H](NC(=O)[C@@H](Cc1ccccc1)NC(=O)[C@@H](Cc1c[nH]c2ccccc12)NC(=O)[C@@H](N)CCCN=C(N)N)C(=O)N[C@H](Cc1ccccc1)C(=O)N[C@@H](CC(=O)O)C(N)=O [listing 2 of 2 here] | 113 µM (≈ 100 µg/mL) | –
30 | CC[C@H](C)[C@H](NC(=O)[C@@H](Cc1ccccc1)NC(=O)[C@@H](Cc1c[nH]c2ccccc12)NC(=O)[C@@H](N)CCCN=C(N)N)C(=O)N[C@H](Cc1ccccc1)C(=O)N[C@@H](CCSC)C(N)=O [listing 2 of 2 here] | 27.8 µM (≈ 25 µg/mL) | –
31 | CC[C@H](C)[C@H](NC(=O)[C@@H](Cc1ccccc1)NC(=O)[C@@H](Cc1c[nH]c2ccccc12)NC(=O)[C@@H](N)CCCN=C(N)N)C(=O)N[C@H](Cc1ccccc1)C(=O)N[C@@H](CCCCN)C(N)=O [listing 2 of 2 here] | 6.92 µM (≈ 6.19 µg/mL) | –
32 | CC[C@H](C)[C@H](NC(=O)[C@@H](Cc1ccccc1)NC(=O)[C@@H](NC(=O)[C@@H](Cc1ccccc1)NC(=O)[C@@H](Cc1c[nH]c2ccccc12)NC(=O)[C@@H](N)CCCN=C(N)N)[C@@H](C)CC)C(N)=O [listing 2 of 2 here] | 28.4 µM (≈ 25 µg/mL) | –
33 | CC[C@H](C)[C@H](NC(=O)[C@@H](Cc1ccccc1)NC(=O)[C@@H](Cc1c[nH]c2ccccc12)NC(=O)[C@@H](N)CCCN=C(N)N)C(=O)N[C@H](Cc1ccccc1)C(=O)N[C@@H](CCC(=O)O)C(N)=O [listing 2 of 2 here] | – | > 28.4 µM
34 | CC[C@H](C)[C@H](NC(=O)[C@@H](Cc1ccccc1)NC(=O)[C@@H](Cc1c[nH]c2ccccc12)NC(=O)[C@@H](N)CCCN=C(N)N)C(=O)N[C@H](Cc1ccccc1)C(=O)N[C@@H](C)C(N)=O [listing 2 of 2 here] | – | > 14.9 µM
35 | CC[C@H](C)[C@H](NC(=O)[C@@H](Cc1ccccc1)NC(=O)[C@@H](Cc1c[nH]c2ccccc12)NC(=O)[C@@H](N)CCCN=C(N)N)C(=O)N[C@H](Cc1ccccc1)C(=O)N[C@H](C(N)=O)[C@@H](C)O [listing 2 of 2 here] | – | > 14.9 µM
36 | NCCCC[C@H](NC(=O)[C@@H](Cc1ccccc1)NC(=O)[C@H](Cc1ccccc1)NC(=O)[C@@H](Cc1ccccc1)NC(=O)[C@@H](Cc1c[nH]c2ccccc12)NC(=O)[C@@H](N)Cc1c[nH]cn1)C(N)=O (H-H[dW][dF]F[dF]K-NH2) | 6.81 µM (≈ 6.2 µg/mL) | 28.6 µM
37 | CC[C@H](C)[C@H](NC(=O)[C@@H](Cc1ccccc1)NC(=O)[C@@H](Cc1c[nH]c2ccccc12)NC(=O)[C@@H](N)CCCN=C(N)N)C(=O)N[C@H](Cc1ccccc1)C(=O)N[C@@H](Cc1c[nH]c2ccccc12)C(N)=O [listing 2 of 2 here] | – | 25.4 µM
38 | CC[C@H](C)[C@H](NC(=O)[C@@H](Cc1ccccc1)NC(=O)[C@@H](Cc1c[nH]c2ccccc12)NC(=O)[C@@H](N)CCCN=C(N)N)C(=O)N[C@H](Cc1ccccc1)C(=O)N1CCC[C@H]1C(N)=O [listing 2 of 2 here] | 28.9 µM (≈ 25 µg/mL) | –
39 | CC[C@H](C)[C@H](NC(=O)[C@@H](Cc1ccccc1)NC(=O)[C@@H](Cc1c[nH]c2ccccc12)NC(=O)[C@@H](N)CCCN=C(N)N)C(=O)N[C@H](Cc1ccccc1)C(=O)N[C@@H](Cc1ccccc1)C(N)=O [listing 2 of 2 here] | – | 13.7 µM
